# Measurements published in PubChem BioAssay (NCI).
#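 Test compounds were applied to cells in 96-well plates for 48 hours at 5 doses. GI50 marks 50% less growth. TGI: total growth inhibition.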
# Columns and labels:
# Assay in all cases: growth of human tumour cells (NCI), 48 h
# LOX IMVI melanoma = tested on: LOX IMVI melanoma
# U251 CNS = tested on: U251 CNS
# SN12C renal = tested on: SN12C renal
# MOLT-4 leukemia = tested on: MOLT-4 leukemia
# OVCAR-8 ovarian = tested on: OVCAR-8 ovarian
# HS 578T breast = tested on: HS 578T breast
# UACC-62 melanoma = tested on: UACC-62 melanoma
# OVCAR-3 ovarian = tested on: OVCAR-3 ovarian
# IGROV1 ovarian = tested on: IGROV1 ovarian
# MDA-N = tested on: MDA-N
# ACHN renal = tested on: ACHN renal
# K-562 leukemia = tested on: K-562 leukemia
# KM12 colon = tested on: KM12 colon
# SNB-19 CNS = tested on: SNB-19 CNS
# HCT-15 colon = tested on: HCT-15 colon
# COLO 205 colon = tested on: COLO 205 colon
# PC-3 prostate = tested on: PC-3 prostate
# HL-60(TB) leukemia = tested on: HL-60(TB) leukemia
# RXF 393 renal = tested on: RXF 393 renal
# TK-10 renal = tested on: TK-10 renal
# CAKI-1 renal = tested on: CAKI-1 renal
# EKVX NSCLC = tested on: EKVX NSCLC
# SF-268 CNS = tested on: SF-268 CNS
# CCRF-CEM leukemia = tested on: CCRF-CEM leukemia
# SK-MEL-5 melanoma = tested on: SK-MEL-5 melanoma
# SK-OV-3 ovarian = tested on: SK-OV-3 ovarian
# T-47D breast = tested on: T-47D breast
# A498 renal = tested on: A498 renal
# HOP-92 NSCLC = tested on: HOP-92 NSCLC
# HT29 colon = tested on: HT29 colon
# MDA-MB-435 = tested on: MDA-MB-435
# SF-539 CNS = tested on: SF-539 CNS
# NCI/ADR-RES ovarian = tested on: NCI/ADR-RES ovarian
# A549 NSCLC = tested on: A549 NSCLC
# UACC-257 melanoma = tested on: UACC-257 melanoma
# NCI-H226 lung = tested on: NCI-H226 lung
# MDA-MB-231 breast = tested on: MDA-MB-231 breast
# UO-31 renal = tested on: UO-31 renal
# NCI-H23 lung = tested on: NCI-H23 lung
# HCT-116 colon = tested on: HCT-116 colon
# SK-MEL-28 melanoma = tested on: SK-MEL-28 melanoma
# OVCAR-5 ovarian = tested on: OVCAR-5 ovarian
# OVCAR-4 ovarian = tested on: OVCAR-4 ovarian
# NCI-H460 lung = tested on: NCI-H460 lung
# BT-549 breast = tested on: BT-549 breast
# 786-0 renal = tested on: 786-0 renal
# MALME-3M melanoma = tested on: MALME-3M melanoma
# HCC-2998 colon = tested on: HCC-2998 colon
# SF-295 CNS = tested on: SF-295 CNS
# SK-MEL-2 melanoma = tested on: SK-MEL-2 melanoma
# DU-145 prostate = tested on: DU-145 prostate
# HOP-62 NSCLC = tested on: HOP-62 NSCLC
# MCF7 breast = tested on: MCF7 breast
# NCI-H522 lung = tested on: NCI-H522 lung
# RPMI-8226 leukemia = tested on: RPMI-8226 leukemia
# SW-620 colon = tested on: SW-620 colon
# M14 melanoma = tested on: M14 melanoma
compound,measurement,setting,value
COc1ccccc1-c1cc(=O)c2c(C)cc(C)nc2[nH]1,TGI,LOX IMVI melanoma,> 100 µM
same,GI50,U251 CNS,> 100 µM
same,TGI,U251 CNS,> 100 µM
same,TGI,SN12C renal,> 100 µM
same,TGI,MOLT-4 leukemia,> 100 µM
same,TGI,OVCAR-8 ovarian,> 100 µM
same,TGI,HS 578T breast,> 100 µM
same,TGI,UACC-62 melanoma,> 100 µM
same,GI50,OVCAR-3 ovarian,64.2 µM
same,TGI,OVCAR-3 ovarian,> 100 µM
same,TGI,IGROV1 ovarian,> 100 µM
same,GI50,MDA-N,33.2 µM
same,TGI,MDA-N,> 100 µM
same,TGI,ACHN renal,> 100 µM
same,TGI,K-562 leukemia,> 100 µM
same,TGI,KM12 colon,> 100 µM
same,TGI,SNB-19 CNS,> 100 µM
same,TGI,HCT-15 colon,> 100 µM
same,TGI,COLO 205 colon,> 100 µM
same,GI50,PC-3 prostate,48.3 µM
same,TGI,PC-3 prostate,> 100 µM
same,GI50,HL-60(TB) leukemia,30.4 µM
same,TGI,HL-60(TB) leukemia,> 100 µM
same,TGI,RXF 393 renal,> 100 µM
same,TGI,TK-10 renal,> 100 µM
same,TGI,CAKI-1 renal,> 100 µM
same,TGI,EKVX NSCLC,> 100 µM
same,TGI,SF-268 CNS,> 100 µM
same,TGI,CCRF-CEM leukemia,> 100 µM
same,GI50,SK-MEL-5 melanoma,33.7 µM
same,TGI,SK-MEL-5 melanoma,> 100 µM
same,TGI,SK-OV-3 ovarian,> 100 µM
same,TGI,T-47D breast,> 100 µM
same,TGI,A498 renal,> 100 µM
same,TGI,HOP-92 NSCLC,94.4 µM
same,TGI,HT29 colon,> 100 µM
same,GI50,MDA-MB-435,32.1 µM
same,TGI,MDA-MB-435,> 100 µM
same,TGI,SF-539 CNS,> 100 µM
same,TGI,NCI/ADR-RES ovarian,> 100 µM
same,TGI,A549 NSCLC,> 100 µM
same,TGI,UACC-257 melanoma,> 100 µM
same,TGI,NCI-H226 lung,> 100 µM
same,TGI,MDA-MB-231 breast,> 100 µM
same,TGI,UO-31 renal,> 100 µM
same,TGI,NCI-H23 lung,> 100 µM
same,GI50,HCT-116 colon,74.5 µM
same,TGI,HCT-116 colon,> 100 µM
same,TGI,SK-MEL-28 melanoma,> 100 µM
same,TGI,OVCAR-5 ovarian,> 100 µM
same,TGI,OVCAR-4 ovarian,> 100 µM
same,GI50,NCI-H460 lung,70.1 µM
same,TGI,NCI-H460 lung,> 100 µM
same,TGI,BT-549 breast,> 100 µM
same,GI50,786-0 renal,> 100 µM
same,TGI,786-0 renal,> 100 µM
same,TGI,MALME-3M melanoma,> 100 µM
same,TGI,HCC-2998 colon,> 100 µM
same,GI50,SF-295 CNS,53.1 µM
same,TGI,SF-295 CNS,> 100 µM
same,TGI,SK-MEL-2 melanoma,> 100 µM
same,TGI,DU-145 prostate,> 100 µM
same,TGI,HOP-62 NSCLC,> 100 µM
same,TGI,MCF7 breast,> 100 µM
same,TGI,NCI-H522 lung,> 100 µM
same,TGI,RPMI-8226 leukemia,> 100 µM
same,TGI,SW-620 colon,> 100 µM
same,TGI,M14 melanoma,> 100 µM
